Experiments:
[1] = tested on: human skin explants; experiment: Sunburn cell (SBC) count in UV-irradiated human skin explants; format: cell-based; conditions: for reduction of the number of SBC in the epidermis compared to the untreated and irradiated skin: 7 days of treatment, UV irradiation; for reduction of the number of SBC in the epidermis compared to the untreated and irradiated skin / Number of SBC per cm, Irradiated, Average: P1 330 ng·mL-1, P2 and P3 15.5 ng·mL-1; for Number of SBC per cm, Irradiated, Average: UVB 0.30 J/cm^2 and UVA 9 J/cm^2 on day 7, collection 24 hours after irradiation; for Number of SBC per cm, Unirradiated, Mean: unirradiated explants, day 8, P1 330 ng·mL-1, P2 and P3 15.5 ng·mL-1 in medium from day 0
Experimental: 3. Experimental Study of the Effect of a Bixin-Enriched Urucum Extract, of Bixin and of Norbixin (FIG. 1). Following treatment and UV-B irradiation of human skin explants, a Masson trichrome staining allows the visualization and counting of SBC. 3.1 Tested Products: • P1: urucum organic extract titrated at 6% bixin (330 ng·mL-1) • P2: pure bixin (15.5 ng·mL-1) • P3: pure norbixin (15.5 ng·mL-1) 27 explants (3 per condition) with a diameter of 10 mm were prepared from an abdominoplasty. The explants were cultured at 37° C. in a humid atmosphere containing 5% CO2. These explants were divided into nine (9) batches as follows: Urucum extract was dissolved in DMSO. The three products were added to the medium on the first day (D0), in order to achieve the desired final concentrations. The final amount of DMSO in the medium still remained below 1%. The explants of the control batch received no treatment. On day 7, the explants were exposed to UVB at a dose of 0.30 J/cm^2 and UVA at a dose of 9 J/cm^2. Non-irradiated batches were placed in the dark during the whole irradiation time. Immediately after irradiation, the explants were put back into culture medium. At day 8, i.e. 24 hours after irradiation, the three explants from each batch were taken and processed in the same way. After 48 hours of fixation in Bouin's fixative, samples were dried and impregnated in paraffin using a Leica 1020 automated dehydration controller. Microscopic observations were made by optical microscopy using a Leica DMLB model, with the ×40 lens. Observation of the morphology was performed on paraffin sections after staining with Goldner's variant of Masson's trichrome. Sunburn cells (SBC) were counted throughout each epidermis. The length of each epidermis was measured using the measurement module of the Leica IM1000 and the number of SBC per cm of skin was then calculated.

[2] = after ingestion of an oily annatto solution containing 16 mg bixin, cited from earlier work; for time for which the plasma concentration was observed: norbixin above 25 ng·mL^−1, bixin at 10 ng·mL^−1
[3] = tested on: plasmid DNA; conditions: norbixin 10 μM, 10 μM H2O2, Sn^2+ or Fe^2+ ions; cited from earlier work
[4] = tested on: E. coli; conditions: UV-radiation in the presence of H2O2 or superoxide anion; cited from earlier work
[5] = tested on: SOS system; conditions: in the presence of norbixin; cited from earlier work
[6] = tested on: Salmonella typhimurium; conditions: cited from earlier work
[7] = bixin in an extract standardized at 92% bixin; norbixin for an extract standardized at 91% of norbixin; cited from earlier work
[8] = cell-free, xanthine/xanthine oxidase system; cited from earlier work
[9] = single dose of 120 mg or daily dose of 90 mg over 23 days; cited from earlier work
[10] = tested on: chromosomal damage; conditions: mice, oral, 200 mg per kilogram of body weight before γ-irradiation (1.5-3.0 Gy); cited from earlier work
[11] = orally administered prior to chemotherapy; cited from earlier work

| SMILES | reduction of the number of SBC in the epidermis compared to the untreated and irradiated skin [1] | Number of SBC per cm, Irradiated, Average [1] | Number of SBC per cm, Unirradiated, Mean [1] | plasma concentration [2] | time for which the plasma concentration was observed [2] | daily acceptable dose (JECFA) [7] | superoxide scavenging ability, decreasing order [8] | further results |
| --- | --- | --- | --- | --- | --- | --- | --- | --- |
| CC(/C=C/C=C(C)/C=C/C(=O)O)=C\C=C\C=C(C)\C=C\C=C(C)\C=C\C(=O)O (stereo in doubt) [P3, norbixin] | 84.4% | 25.5 per cm | 0.3 per cm | higher than 25 ng·mL^−1 | more than 6 hours | 0.6 mg/kg | – | protection of plasmid DNA against breaks [3]: protect plasmid DNA; increase of survival of bacteria (factor) [4]: 10; reduction of the UV-C induced SOS system [5]: 2.3 times; reduction of the mutagenic effect of H2O2 [6]: 87% |
| CC1=C[C@H](O)CC(C)(C)[C@H]1/C=C/C(C)=C/C=C/C(C)=C/C=C/C=C(C)/C=C/C=C(C)/C=C/C1=C(C)C[C@@H](O)CC1(C)C [lutein] | – | – | – | – | – | – | canthaxanthin>bixin>lutein>β-carotene | – |
| CC1=C(/C=C/C(C)=C/C=C/C(C)=C/C=C/C=C(C)/C=C/C=C(C)/C=C/C2=C(C)CCCC2(C)C)C(C)(C)CCC1 [β-carotene] | – | – | – | – | – | – | canthaxanthin>bixin>lutein>β-carotene | protective effect against sun [9]: ineffective |
| COC(=O)/C=C/C(C)=C\C=C\C(C)=C\C=C\C=C(C)\C=C\C=C(C)\C=C\C(=O)O [P2, bixin] | 74.4% | 41.9 per cm | 0.3 per cm | 10 ng/mL | less than 4 hours | 12 mg/kg | canthaxanthin>bixin>lutein>β-carotene | chromosomal damage, micronucleus test [10]: reduced the occurrence of chromosomal damage; effect on side-effects of chemotherapy [11]: reduce the side-effects of chemotherapy |
| CC1=C(/C=C/C(C)=C/C=C/C(C)=C/C=C/C=C(C)/C=C/C=C(C)/C=C/C2=C(C)C(=O)CCC2(C)C)C(C)(C)CCC1=O [canthaxanthin] | – | – | – | – | – | – | canthaxanthin>bixin>lutein>β-carotene | – |

Reference: patent publication US9173823B2, “Preparation for sun protection” (INSTITUT BIOPHYTIS SAS, priority 2009, dated 2015)
